Results reported in ChEMBL document CHEMBL3045074, “Synthesis and anticonvulsant activity of novel quinazolin-4(3H)-one derived pyrazole analogs” (Med Chem Res, 2013).
The source made the active and inactive calls. The calls are words filed in the database; no cut-off is given here.

Columns and labels:
Mus musculus [1] = experiment: Anticonvulsant activity in Swiss albino Mus musculus (mouse) assessed as protection against maximal electroshock-induced seizures at 100 mg/kg, ip after 0.5 hr; assay type: functional, organism-based; parameters: dose 100 mg/kg
Mus musculus [2] = experiment: Neurotoxicity in Swiss albino Mus musculus (mouse) assessed as minimal motor impairment at 300 mg/kg, ip after 4 hr by rotorod test; assay type: toxicity, organism-based; parameters: dose 300 mg/kg, route intraperitoneal; details: in vivo
Mus musculus [3] = experiment: Neurotoxicity in Swiss albino Mus musculus (mouse) assessed as minimal motor impairment at 300 mg/kg, ip after 0.5 hr by rotorod test; assay type: toxicity, organism-based; parameters: dose 300 mg/kg, route intraperitoneal; details: in vivo
Mus musculus [4] = experiment: Anticonvulsant activity in Swiss albino Mus musculus (mouse) assessed as protection against subcutaneous pentylenetetrazole-induced seizure at 300 mg/kg, ip after 4 hr; assay type: functional, organism-based; parameters: dose 300 mg/kg
Mus musculus [5] = experiment: Anticonvulsant activity in Swiss albino Mus musculus (mouse) assessed as protection against subcutaneous pentylenetetrazole-induced seizure at 300 mg/kg, ip after 0.5 hr; assay type: functional, organism-based; parameters: dose 300 mg/kg
Mus musculus [6] = experiment: Anticonvulsant activity in Swiss albino Mus musculus (mouse) assessed as protection against maximal electroshock-induced seizures at 300 mg/kg, ip after 4 hr; assay type: functional, organism-based; parameters: dose 300 mg/kg
Mus musculus [7] = experiment: Anticonvulsant activity in Swiss albino Mus musculus (mouse) assessed as protection against subcutaneous pentylenetetrazole-induced seizure at 100 mg/kg, ip after 0.5 hr; assay type: functional, organism-based; parameters: dose 100 mg/kg
Mus musculus [8] = experiment: Anticonvulsant activity in Swiss albino Mus musculus (mouse) assessed as protection against maximal electroshock-induced seizures at 300 mg/kg, ip after 0.5 hr; assay type: functional, organism-based; parameters: dose 300 mg/kg
Mus musculus [9] = experiment: Anticonvulsant activity in Swiss albino Mus musculus (mouse) assessed as protection against maximal electroshock-induced seizures at 30 mg/kg, ip after 0.5 hr; assay type: functional, organism-based; parameters: dose 30 mg/kg
Rattus norvegicus [10] = experiment: Anticonvulsant activity in Wistar Rattus norvegicus (rat) assessed as protection against maximal electroshock-induced seizures at 30 mg/kg, po after 4 hr; assay type: functional
Rattus norvegicus [11] = experiment: Neurotoxicity in Wistar Rattus norvegicus (rat) assessed as minimal motor impairment at 30 mg/kg, po after 0.25 to 4 hr by rotorod test; assay type: toxicity, organism-based; parameters: dose 30 mg/kg, route oral; details: in vivo
Rattus norvegicus [12] = experiment: Anticonvulsant activity in Wistar Rattus norvegicus (rat) assessed as protection against maximal electroshock-induced seizures at 30 mg/kg, po after 2 hr; assay type: functional
Rattus norvegicus [13] = experiment: Anticonvulsant activity in Wistar Rattus norvegicus (rat) assessed as protection against maximal electroshock-induced seizures at 30 mg/kg, po after 1 hr; assay type: functional
Rattus norvegicus [14] = experiment: Anticonvulsant activity in Wistar Rattus norvegicus (rat) assessed as protection against maximal electroshock-induced seizures at 30 mg/kg, po after 0.5 hr; assay type: functional
Rattus norvegicus [15] = experiment: Anticonvulsant activity in Wistar Rattus norvegicus (rat) assessed as protection against maximal electroshock-induced seizures at 30 mg/kg, po after 0.25 hr; assay type: functional
Mus musculus [16] = experiment: Neurotoxicity in Swiss albino Mus musculus (mouse) assessed as minimal motor impairment at 100 mg/kg, ip after 0.5 hr by rotorod test; assay type: toxicity, organism-based; parameters: dose 100 mg/kg, route intraperitoneal; details: in vivo
Mus musculus [17] = experiment: Anticonvulsant activity in Swiss albino Mus musculus (mouse) assessed as protection against maximal electroshock-induced seizures at 100 mg/kg, ip after 4 hr; assay type: functional, organism-based; parameters: dose 100 mg/kg
Mus musculus [18] = experiment: Anticonvulsant activity in Swiss albino Mus musculus (mouse) assessed as protection against subcutaneous pentylenetetrazole-induced seizure at 30 to 300 mg/kg, ip after 0.5 hr; assay type: functional, organism-based

Q: With `O=C(c1ccc(-n2c(-c3ccccc3)nc3ccccc3c2=O)cc1)N1N=C(c2ccccc2)CC1c1ccc(Cl)cc1` (stereo unspecified) as the compound, how does the Activity (Mus musculus [1]) read?
A: The Activity was “Active”.

Q: What about the Activity (Mus musculus [2]) of the same compound?
A: Its Activity is “Toxic”.

Q: What about the Activity (Mus musculus [3]) of the same compound?
A: The Activity was “Non-toxic”.

Q: And the Activity (Mus musculus [4])?
A: The Activity was “inactive”.

Q: And the Activity (Mus musculus [5])?
A: Its Activity is “Active”.

Q: What about the Activity (Mus musculus [6]) of the same compound?
A: The Activity was “Active”.

Q: `CCC1(C)CC(=O)NC1=O` (stereo unspecified) [ETHOSUXIMIDE] was tested. Which Activity (Mus musculus [2]) did it give?
A: The Activity was “Non-toxic”.

Q: And the Activity (Mus musculus [3])?
A: Its Activity is “Non-toxic”.

Q: And the Activity (Mus musculus [4])?
A: The Activity was “Active”.

Q: What about the Activity (Mus musculus [7]) of the same compound?
A: The Activity was “Active”.

Q: And the Activity (Mus musculus [6])?
A: Its Activity is “inactive”.

Q: What about the Activity (Mus musculus [8]) of the same compound?
A: The Activity was “inactive”.

Q: `Cc1nc2ccccc2c(=O)n1-c1ccc(C(=O)N2N=C(c3ccccc3)CC2c2ccc(O)cc2)cc1` (stereo unspecified) was tested. Which Activity (Mus musculus [9]) did it give?
A: Its Activity is “Active”.

Q: What about the Activity (Rattus norvegicus [10]) of the same compound?
A: Its Activity is 100%.

Q: What about the Activity (Rattus norvegicus [11]) of the same compound?
A: The Activity was “Non-toxic”.

Q: And the Activity (Rattus norvegicus [12])?
A: The Activity was 100%.

Q: What about the Activity (Rattus norvegicus [13]) of the same compound?
A: Its Activity is 50%.

Q: What about the Activity (Rattus norvegicus [14]) of the same compound?
A: The Activity was 50%.

Q: And the Activity (Rattus norvegicus [15])?
A: The Activity was 25%.

Q: And the Activity (Mus musculus [2])?
A: The Activity was “Toxic”.

Q: What about the Activity (Mus musculus [16]) of the same compound?
A: Its Activity is “Toxic”.

Q: What about the Activity (Mus musculus [4]) of the same compound?
A: The Activity was “Active”.

Q: What about the Activity (Mus musculus [5]) of the same compound?
A: Its Activity is “Active”.

Q: What about the Activity (Mus musculus [6]) of the same compound?
A: The Activity was “Active”.

Q: How did the Activity (Mus musculus [9]) turn out when `Cc1nc2c(Br)cc(Br)cc2c(=O)n1-c1ccc(C(=O)N2N=C(c3ccccc3)CC2c2ccc(N(C)C)cc2)cc1` (stereo unspecified) was run?
A: Its Activity is “Active”.

Q: And the Activity (Rattus norvegicus [10])?
A: Its Activity is 0%.

Q: What about the Activity (Rattus norvegicus [11]) of the same compound?
A: Its Activity is “Non-toxic”.

Q: What about the Activity (Rattus norvegicus [12]) of the same compound?
A: Its Activity is 0%.

Q: And the Activity (Rattus norvegicus [13])?
A: Its Activity is 25%.

Q: What about the Activity (Rattus norvegicus [14]) of the same compound?
A: Its Activity is 50%.

Q: And the Activity (Rattus norvegicus [15])?
A: Its Activity is 0%.

Q: What about the Activity (Mus musculus [2]) of the same compound?
A: Its Activity is “Toxic”.

Q: What about the Activity (Mus musculus [3]) of the same compound?
A: Its Activity is “Toxic”.

Q: What about the Activity (Mus musculus [4]) of the same compound?
A: The Activity was “inactive”.

Q: What about the Activity (Mus musculus [5]) of the same compound?
A: Its Activity is “Active”.

Q: And the Activity (Mus musculus [17])?
A: The Activity was “Active”.

Q: Which Activity (Mus musculus [4]) does the source give for `Cc1nc2ccccc2c(=O)n1-c1ccc(C(=O)N2N=C(c3ccccc3)CC2c2cccc([N+](=O)[O-])c2)cc1` (stereo unspecified) here?
A: The Activity was “Active”.

Q: What about the Activity (Mus musculus [5]) of the same compound?
A: Its Activity is “inactive”.

Q: What about the Activity (Mus musculus [6]) of the same compound?
A: The Activity was “inactive”.

Q: What about the Activity (Mus musculus [8]) of the same compound?
A: Its Activity is “inactive”.

Q: How did the Activity (Mus musculus [4]) turn out when `Cc1ccc(C2CC(c3ccccc3)=NN2C(=O)c2ccc(-n3c(-c4ccccc4)nc4ccccc4c3=O)cc2)cc1` (stereo unspecified) was run?
A: Its Activity is “inactive”.

Q: And the Activity (Mus musculus [5])?
A: Its Activity is “inactive”.

Q: What about the Activity (Mus musculus [6]) of the same compound?
A: Its Activity is “inactive”.

Q: What about the Activity (Mus musculus [8]) of the same compound?
A: The Activity was “Active”.

Q: For `COc1ccc(C2CC(c3ccccc3)=NN2C(=O)c2ccc(-n3c(C)nc4ccccc4c3=O)cc2)cc1` (stereo unspecified), which Activity (Mus musculus [1]) is on record?
A: The Activity was “Active”.

Q: And the Activity (Mus musculus [2])?
A: The Activity was “Toxic”.

Q: What about the Activity (Mus musculus [3]) of the same compound?
A: The Activity was “Non-toxic”.

Q: And the Activity (Mus musculus [4])?
A: Its Activity is “inactive”.

Q: What about the Activity (Mus musculus [5]) of the same compound?
A: Its Activity is “Active”.

Q: What about the Activity (Mus musculus [6]) of the same compound?
A: The Activity was “inactive”.

Q: Which Activity (Mus musculus [9]) does the source give for `Cc1nc2c(Br)cc(Br)cc2c(=O)n1-c1ccc(C(=O)N2N=C(c3ccccc3)CC2c2ccc(Cl)cc2)cc1` (stereo unspecified) here?
A: Its Activity is “Active”.

Q: And the Activity (Rattus norvegicus [10])?
A: The Activity was 100%.

Q: And the Activity (Rattus norvegicus [11])?
A: The Activity was “Non-toxic”.

Q: And the Activity (Rattus norvegicus [12])?
A: Its Activity is 100%.

Q: And the Activity (Rattus norvegicus [13])?
A: The Activity was 50%.

Q: And the Activity (Rattus norvegicus [14])?
A: Its Activity is 50%.

Q: What about the Activity (Rattus norvegicus [15]) of the same compound?
A: Its Activity is 25%.

Q: What about the Activity (Mus musculus [2]) of the same compound?
A: Its Activity is “Non-toxic”.

Q: What about the Activity (Mus musculus [3]) of the same compound?
A: Its Activity is “Non-toxic”.

Q: And the Activity (Mus musculus [4])?
A: The Activity was “Active”.

Q: And the Activity (Mus musculus [7])?
A: The Activity was “Active”.

Q: What about the Activity (Mus musculus [17]) of the same compound?
A: The Activity was “Active”.

Q: `Cc1ccc(C2CC(c3ccccc3)=NN2C(=O)c2ccc(-n3c(C)nc4c(Br)cc(Br)cc4c3=O)cc2)cc1` (stereo unspecified) was tested. Which Activity (Mus musculus [1]) did it give?
A: Its Activity is “Active”.

Q: And the Activity (Rattus norvegicus [10])?
A: Its Activity is 75%.

Q: What about the Activity (Rattus norvegicus [11]) of the same compound?
A: The Activity was “Non-toxic”.

Q: What about the Activity (Rattus norvegicus [12]) of the same compound?
A: The Activity was 75%.

Q: What about the Activity (Rattus norvegicus [13]) of the same compound?
A: The Activity was 50%.

Q: And the Activity (Rattus norvegicus [14])?
A: Its Activity is 50%.

Q: And the Activity (Rattus norvegicus [15])?
A: The Activity was 25%.

Q: What about the Activity (Mus musculus [2]) of the same compound?
A: The Activity was “Toxic”.

Q: And the Activity (Mus musculus [3])?
A: The Activity was “Non-toxic”.

Q: And the Activity (Mus musculus [4])?
A: Its Activity is “Active”.

Q: And the Activity (Mus musculus [18])?
A: Its Activity is “Active”.

Q: And the Activity (Mus musculus [6])?
A: The Activity was “Active”.

Q: How did the Activity (Mus musculus [9]) turn out when `Cc1nc2c(Br)cc(Br)cc2c(=O)n1-c1ccc(C(=O)N2N=C(c3ccccc3)CC2c2ccc(O)cc2)cc1` (stereo unspecified) was run?
A: Its Activity is “Active”.

Q: And the Activity (Rattus norvegicus [10])?
A: The Activity was 100%.

Q: And the Activity (Rattus norvegicus [11])?
A: Its Activity is “Non-toxic”.

Q: And the Activity (Rattus norvegicus [12])?
A: Its Activity is 100%.

Q: And the Activity (Rattus norvegicus [13])?
A: Its Activity is 50%.

Q: What about the Activity (Rattus norvegicus [14]) of the same compound?
A: Its Activity is 50%.

Q: And the Activity (Rattus norvegicus [15])?
A: The Activity was 25%.

Q: What about the Activity (Mus musculus [2]) of the same compound?
A: The Activity was “Non-toxic”.

Q: And the Activity (Mus musculus [3])?
A: The Activity was “Toxic”.

Q: What about the Activity (Mus musculus [4]) of the same compound?
A: The Activity was “Active”.

Q: And the Activity (Mus musculus [5])?
A: The Activity was “Active”.

Q: What about the Activity (Mus musculus [17]) of the same compound?
A: The Activity was “Active”.
